Results on two compounds are retold here after patent publication US10487093B2, “Heterocyclic compounds, in particular 2-oxo-4,4,5,5,6,6,7,7-octahydrobenzoxazole derivatives, and their use as antibacterial compounds” (priority 2016, dated 2019).

The test system of experiment [1] is human hepatic cell line (HepG2 ATCC HB-8065). Put plainly: Human cell viability assay (CellTiter-Glo). Conditions: Homo sapiens, HepG2, 24 h, read-out: IC50 (μg/mL) HepG2. On the technique in general: In ATP-based viability assays light output follows the ATP content of the culture.
For experiment [2], the system named is E. coli NCTC 13476. Description: MIC, broth microdilution (CLSI) versus planktonic bacteria. The format is cell-based. Conditions: NCTC13476; Escherichia coli NCTC 13476; 16-20 h; mode of three independent experiments; read-out: MIC, Ec NCTC 13476. For orientation: Dilution methods test growth across graded concentrations, often in twofold steps.
Experiment [3] has as its system E. coli MG1655 S83L. The format is cell-based, Escherichia coli. Conditions: compared to the isogenic parent strain E. coli MG1655; S83L mutation on DNA gyrase subunit GyrA.
Experiment [4] concerns Enterobacter cloacae NCTC 13406. Description: MIC, broth microdilution (CLSI) versus planktonic bacteria. Format: cell-based. The settings on record: NCTC13406; Enterobacter cloacae NCTC 13406; 16-20 h; mode of three independent experiments; read-out: MIC, Ecl NCTC 13406.
The test system of experiment [5] is Acinetobacter baumannii ATCC 19606. The experiment is described as above. Conditions: ATCC19606; Acinetobacter baumannii ATCC 19606; 16-20 h; mode of three independent experiments; read-out: MIC, Ab ATCC 19606. Format: cell-based.
Experiment [6] relates to Escherichia coli ATCC 25922. The experiment is described as above. The format is cell-based. Conditions: ATCC25922; Escherichia coli ATCC 25922; 16-20 h; mode of three independent experiments; read-out: MIC, Ec ATCC 25922.
The test system of experiment [7] is E. coli ATCC BAA-2452. The experiment is described as above. Format: cell-based. Conditions: Escherichia coli ATCC BAA-2452; 16-20 h; mode of three independent experiments; read-out: MIC, Ec ATCC BAA 2452.
Experiment [8] deals with Streptococcus pneumoniae ATCC 49619. The experiment is described as above. Conditions: ATCC49619; Streptococcus pneumoniae ATCC 49619; 16-20 h; mode of three independent experiments; read-out: MIC, Sp ATCC 49619. Format: cell-based.
The test system of experiment [9] is Staphylococcus aureus ATCC 29213. The experiment is described as above. The format is cell-based. Conditions: ATCC29213; Staphylococcus aureus ATCC 29213; 16-20 h; mode of three independent experiments; read-out: MIC, Sa ATCC 29213.
Experiment [10] concerns E. coli MG1655 D87G. The format is cell-based, Escherichia coli. Conditions: compared to the isogenic parent strain E. coli MG1655; D87G mutation on DNA gyrase subunit GyrA.
The test system of experiment [11] is E. coli MG1655. Description: MIC, broth microdilution (CLSI) versus planktonic bacteria. The settings on record: Escherichia coli, MG1655, read-out: MIC, Ec MG1655 WT. Format: cell-based, Escherichia coli.
Experiment [12] concerns Pseudomonas aeruginosa ATCC 27853. Described as above. The format is cell-based. Conditions: ATCC27853; Pseudomonas aeruginosa ATCC 27853; 16-20 h; mode of three independent experiments; read-out: MIC, Pa ATCC 27853.

≈ marks a conversion by molar mass, not a printed value.

As usually defined, the MIC is the lowest concentration found to suppress growth. For the compound `COc1ccc2ncc(=O)n(CCN[C@@H]3CC[C@@H]4[C@@H](C3)OC(=O)N4c3ccc4c(n3)NC(=O)CO4)c2c1` [Compound 21, 1-(2-{[(3aR,6R,7aR)-2-oxo-3-{3-oxo-2H,3H,4H-pyrido[3,2-b][1,4]oxazin-6-yl}-octahydro-1,3-benzoxazol-6-yl]amino}ethyl)-7-methoxy-1,2-dihydroquinoxalin-2-one], the IC50 in [1] was > 100 µg/mL. Further, the MIC in experiment [2] was < 1 µg/mL; in experiment [4] it was < 1 µg/mL; in experiment [5], < 1 µg/mL; in [6], < 1 µg/mL; in experiment [7] it was < 1 µg/mL; in experiment [8] it was 1 to 10 µg/mL (≈ 1.97 to 19.7 µM). Moreover, the MIC in experiment [9], in [11] and in experiment [12] was < 1 µg/mL in each case. In [3], the “Fold increase in MIC, E. coli MG1655 S83L” value is on record as 1 fold. For the same compound, the “Fold increase in MIC, E. coli MG1655 D87G” value in [10] turned out to be 2 fold.

Turning to `Cc1ccc2ncc(=O)n(CCN[C@H]3CC[C@H]4[C@@H](C3)OC(=O)N4c3ccc4c(n3)NC(=O)CO4)c2c1` [Compound 27, 1-(2-{[(3aS,6S,7aR)-2-oxo-3-{3-oxo-2H,3H,4H-pyrido[3,2-b][1,4]oxazin-6-yl}-octahydro-1,3-benzoxazol-6-yl]amino}ethyl)-7-methyl-1,2-dihydroquinoxalin-2-one], the IC50 in experiment [1] is > 100 µg/mL. The MIC in experiment [4] was 1 to 10 µg/mL (≈ 2.04 to 20.4 µM); in experiment [6] it was < 1 µg/mL; in experiment [8], < 1 µg/mL; in experiment [9], < 1 µg/mL; in experiment [12] it was 1 to 10 µg/mL (≈ 2.04 to 20.4 µM).
